This is an account of results in PubChem BioAssay (NCI).

Test systems include ACHN renal; DU-145 prostate; EKVX NSCLC; HL-60(TB) leukemia; HT29 colon; KM12 colon; M14 melanoma; MDA-N; NCI-H23 lung; OVCAR-8 ovarian; RPMI-8226 leukemia; SF-268 CNS; SF-295 CNS; SW-620 colon; UO-31 renal; CCRF-CEM leukemia; HOP-62 NSCLC; SNB-75 CNS.
Holding throughout (test): NCI-60 cell line screen, 48 h

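Growth conditions: 96-well plates. Treatment: test compound, 48 hours, 5 concentrations. Analysis: linear interpolation between bracketing concentrations; unreached endpoints set to highest concentration. TGI: concentration producing complete growth inhibition.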

For the compound `COc1ccc2nc(-c3ccc(O)cc3)sc2c1`, the TGI with ACHN renal was 32.5 µM; with DU-145 prostate, over 100 µM; with EKVX NSCLC it was 35.7 µM; in the experiment on HL-60(TB) leukemia, 53.5 µM; in the experiment with HT29 colon, 37.2 µM; in the experiment with KM12 colon, 86.9 µM. Also, the TGI with M14 melanoma came to 47.5 µM; in the experiment on MDA-N, 50.8 µM; with NCI-H23 lung, 43.6 µM; with OVCAR-8 ovarian it was 45.1 µM; in the experiment with RPMI-8226 leukemia it was 0.678 µM; with SF-268 CNS, 49.5 µM. In addition, the TGI with SF-295 CNS stood at 42.6 µM; with SW-620 colon it was 44.5 µM; with UO-31 renal, 30.1 µM.

Regarding `C=C1C2C[C@@H]3O[C@H]4C[C@H]5O[C@@]6(C[C@@H]7O[C@]8(C[C@H](C)[C@@H]9O[C@@H]%10CC(CO)O[C@@H]%10C[C@@H]9O8)C[C@H](C)[C@@H]7O6)C[C@H]5O[C@H]4[C@H](C)[C@H]3OC(=O)C[C@H]3CC[C@@H]4OC5[C@H]6O[C@]7(CC[C@H]8CC(=C)[C@H](CC[C@@H](C[C@H]1C)O2)O8)CC6O[C@@H]5[C@@H](O7)[C@H]4O3` (some centres not stated), the TGI in the experiment on ACHN renal was over 1 µM; with CCRF-CEM leukemia, over 1 µM; with EKVX NSCLC, over 1 µM; with HOP-62 NSCLC, over 1 µM; with M14 melanoma it was over 1 µM; in the experiment on NCI-H23 lung it was 0.00124 µM. In addition, the TGI was 0.00513 µM with OVCAR-8 ovarian; over 1 µM with RPMI-8226 leukemia; over 0.874 µM in the experiment with SF-268 CNS; over 1 µM with SF-295 CNS; over 1 µM with SNB-75 CNS; over 1 µM in the experiment with SW-620 colon. In the experiment with UO-31 renal, this compound showed a TGI of over 1 µM.

Turning to `CC1(C)C2C=CC1C(=O)CC2` (configuration not stated), the TGI in the experiment with ACHN renal, in the experiment on CCRF-CEM leukemia, with EKVX NSCLC, with HL-60(TB) leukemia, with HOP-62 NSCLC and with HT29 colon was over 100 µM throughout. Moreover, the TGI in the experiment on KM12 colon, in the experiment on M14 melanoma, with NCI-H23 lung, in the experiment on OVCAR-8 ovarian, in the experiment on RPMI-8226 leukemia and with SF-268 CNS was over 100 µM in each case. In addition, the TGI with SF-295 CNS, with SNB-75 CNS, with SW-620 colon and in the experiment with UO-31 renal was over 100 µM each time.

As for `Cn1cc2ccccc2c1-c1nc(F)nc(OCC(=O)[C@H]2CCC3[C@@H]4CCC5=CC(=O)CC[C@]5(C)C4[C@@H](O)C[C@@]32C)n1` (some centres not stated), the TGI with ACHN renal turned out to be 32.6 µM; with CCRF-CEM leukemia it was 27.5 µM; with EKVX NSCLC, 58.8 µM; with HL-60(TB) leukemia, 25.3 µM; with HOP-62 NSCLC, 42.7 µM; with HT29 colon, 42.7 µM. For the same compound, the TGI was determined as 33.3 µM in the experiment on KM12 colon; 44.7 µM in the experiment with M14 melanoma; 16.5 µM with NCI-H23 lung; 18.5 µM with OVCAR-8 ovarian; 21.3 µM in the experiment with RPMI-8226 leukemia; 33.3 µM in the experiment on SF-268 CNS. The TGI in the experiment with SF-295 CNS was found to be 44.4 µM; in the experiment with SNB-75 CNS, 35.2 µM; with SW-620 colon, 33.4 µM; in the experiment on UO-31 renal, 37.8 µM.

For `CO/N=C(\C)c1cccc(Nc2c3ccccc3nc3occc23)c1`, the TGI in the experiment with CCRF-CEM leukemia is over 100 µM; with DU-145 prostate, 44.4 µM; with EKVX NSCLC, 37.2 µM; in the experiment with HL-60(TB) leukemia, 13.6 µM; in the experiment with HOP-62 NSCLC, 20.2 µM; with HT29 colon, 16.7 µM. The TGI in the experiment with KM12 colon turned out to be 39.5 µM; in the experiment with M14 melanoma, 25.7 µM; in the experiment on MDA-N, 15.8 µM; in the experiment on NCI-H23 lung, 20.9 µM; with OVCAR-8 ovarian, 66.4 µM; in the experiment with RPMI-8226 leukemia it was 27.7 µM. In addition, the TGI in the experiment with SF-268 CNS stood at 31.8 µM; in the experiment with SF-295 CNS, 18.4 µM; in the experiment on UO-31 renal it was 31.5 µM.

As to `CCN(CC)C(=O)C(C)n1cc(C)c(=O)[nH]c1=O` (configuration not stated), the TGI in the experiment on ACHN renal, in the experiment on CCRF-CEM leukemia, in the experiment with EKVX NSCLC, in the experiment with HL-60(TB) leukemia, in the experiment with HOP-62 NSCLC and in the experiment with HT29 colon was over 100 µM throughout. Moreover, the TGI in the experiment on KM12 colon, with M14 melanoma, in the experiment on NCI-H23 lung, in the experiment on OVCAR-8 ovarian, in the experiment with RPMI-8226 leukemia and with SF-268 CNS was over 100 µM in each case. The TGI is over 100 µM in the experiment on SF-295 CNS, 98.6 µM in the experiment with SNB-75 CNS, over 100 µM in the experiment with SW-620 colon and over 100 µM in the experiment on UO-31 renal.

In the case of `O=C1c2ccc(O)c(O)c2C(=O)c2c(O)ccc(O)c21`, the TGI in the experiment on ACHN renal was 52.5 µM; in the experiment with CCRF-CEM leukemia, 56.7 µM; in the experiment on EKVX NSCLC, 67.4 µM; in the experiment with HOP-62 NSCLC, 65.4 µM; in the experiment with HT29 colon, over 100 µM; in the experiment with KM12 colon, 98.9 µM. Moreover, the TGI in the experiment with M14 melanoma is 54 µM; in the experiment on NCI-H23 lung, 93.8 µM; with OVCAR-8 ovarian it was 80.8 µM; in the experiment on RPMI-8226 leukemia, over 100 µM; in the experiment on SF-268 CNS, over 100 µM; in the experiment with SF-295 CNS, 78.5 µM. In addition, the TGI in the experiment on SW-620 colon is over 100 µM; with UO-31 renal it was 42.8 µM.

`Nc1nc2c3nc(Nc4ccccc4)sc3nc(=O)n2c2sc(Nc3ccccc3)nc12`: the TGI with ACHN renal, in the experiment on CCRF-CEM leukemia, with EKVX NSCLC, in the experiment with HL-60(TB) leukemia, with HOP-62 NSCLC and with HT29 colon was over 100 µM each time. For the same compound, the TGI in the experiment on M14 melanoma, in the experiment with NCI-H23 lung, in the experiment with OVCAR-8 ovarian, with RPMI-8226 leukemia, in the experiment on SF-268 CNS and in the experiment on SF-295 CNS was over 100 µM in each case. Besides, the TGI in the experiment on SNB-75 CNS, in the experiment on SW-620 colon and with UO-31 renal was over 100 µM throughout.

On to `COc1cc(/C=C/C(=O)C2(C(=O)/C=C/c3cc(OC)c(OC)c(OC)c3)CCCCC2)cc(OC)c1OC`, for which the TGI with ACHN renal, in the experiment with CCRF-CEM leukemia, with DU-145 prostate, with EKVX NSCLC, with HL-60(TB) leukemia and in the experiment with HOP-62 NSCLC was over 100 µM throughout. In addition, the TGI with HT29 colon is over 100 µM; in the experiment on KM12 colon it was 75.9 µM; in the experiment with M14 melanoma, 81.7 µM; in the experiment with NCI-H23 lung, over 100 µM; with OVCAR-8 ovarian it was 65.2 µM; in the experiment with RPMI-8226 leukemia it was over 100 µM. Also, the TGI in the experiment with SF-268 CNS is over 100 µM; in the experiment with SF-295 CNS, 89 µM; in the experiment on SNB-75 CNS, over 100 µM; with SW-620 colon, over 100 µM; with UO-31 renal, over 100 µM.
